“Also recorded” adds a separate entry of the source.
Tests used:
[1] = tested on: ERE-driven TATA box promoter; assay: luciferase reporter, consensus ERE upstream of TATA box promoter, COS-1 cells; type: cell-based, African green monkey
Text: Proteins were probed with a Flag antibody followed by a fluorescein-conjugated secondary antibody for visualization (FITC). DAPI staining indicates the nucleus. […] (*) denotes mutants with an impaired DNA binding finction, while VP16* depicts the activation function defective construct. The reporter plasmid contained either one (1× ERE) or two copies (2× ERE) of the consensus ERE in tandem located upstream of a simple promoter, TATA box, driving the expression of the firefly luciferase cDNA. The transfection efficiency was monitored by the co-expression of 0.5 ng of a reporter plasmid, pCMV-RL that drives the expression of Renilla luciferase cDNA. Cells were treated with or without 10^−9 M E2 for 24 h. The cell extracts were assayed for luciferase enzymes, and the normalized firefly/Renilla luciferase activities are presented as fold changes compare to the control, which was set to one. Shown are the mean±SEM of three independent experiments performed in duplicate.
Culturing and transfection of the mammalian COS-1 and […] MDA-MB-231 cells were described previously (Muyan, M. et al. (2001) Mol Cell Endocrinol 182,249-263; Yi, P. et al. (2002) Mol Endocrinol 16, 1810-1827), with the exceptions that 48 well cell culture plates were used and Trans-IT LTI transfection reagent (Mirus Corp., Madison, Wis.). […]

MCF-7 cells = assay: cell cycle analysis (FACS, EGFP-positive cells), transfected MCF-7 cells; type: cell-based, human
Method: (§1) Transfection and processing of cells were done as described in legend of FIG. 5.
MDA-MB-231 and MCF-7 cells were grown as described above. Cells were then transiently transfected with the EGFP vector bearing a cDNA for ERα, CDC or an EBA. Twenty-four hours after transfection, cells were collected by trypsinization, washed in phosphate buffered saline (PBS) and fixed with 1% paraformaldehyde in PBS for one hour. Cells were permeabilized in 70% Ethanol overnight and stained with 50 μg/ml propidium iodide (PI, Sigma-Aldrich) for one hour for flow cytometry analysis. Samples were analyzed on a FACS EPICS Elite EPS flow cytometer (Coulter Corp., Hialeah, Fla.). The percentages of cells at G1 phase were assessed among treatment groups and expressed as percent change compared to cells transfected with EGFP vector bearing no cDNA.

[2] = tested on: human Catepsin D (CatD) gene promoter; assay: CatD promoter luciferase reporter, COS-1 cells; type: cell-based, African green monkey; conditions: without or with 10^−9 M E2 or 10^−7 M 4-OHT, 24 h
Text: Transfection and processing of cells were done as described in legend of FIG. 7. The reporter vector contains the human Catepsin D (CatD) gene promoter that drives the firefly luciferase cDNA expression. The mean±SEM indicates three independent experiments performed in duplicate.
(§2) The CatD and C3 promoters were generated by PCR using pCD3542 (Augereau P. et al. Mol Endocr 8:693-703) and pC3TI (Fan JD. (1996) Mol Endocrinol 10: 1605-16) reporter plasmids as templates, respectively. A fragment of 730 bp [−750 to −22, +1 is referred to the first ATG, (Parker, M. G. (1998) Biochem Soc Symp 63, 45-50)] of the promoter region of CatD gene or 580 bp [−516 to +61, +1 as the transcription start site) of the C3 gene (Tzukerman, M. T. et al. (1994) Mol Endocrinol 8, 21-30)] was generated. PCR fragments were then inserted into the reporter plasmid pGL3-Basic linearized with appropriate restriction enzymes.
(§3) COS-1 cells were transfected with a reporter construct bearing CatD or C3 promoter together with the expression vector bearing none (V, as control), cDNA for ERα or an EBR. Following a transfection, cells were treated without or with 10^−9 M E2 or 10^−7 M 4-OHT for 24 h.

human C3 gene promoter = assay: C3 promoter luciferase reporter, COS-1 cells; type: cell-based, African green monkey
Text: Transfection and processing of cells were done as described in legend of FIG. 7. Shown are the mean±SEM of three independent experiments performed in duplicate and expressed as fold changes compare to the parent expression vector (V), which was set to one.
as §2, §3

RARα promoter = RARα promoter luciferase reporter, MCF-7 cells; type: cell-based, human; conditions: without or with 10^−9 M E2
Method: as §1
(§4) Culturing and transfection of the mammalian COS-1 and […] MDA-MB-231 cells were described previously (Muyan, M. et al. (2001) Mol Cell Endocrinol 182,249-263; Yi, P. et al. (2002) Mol Endocrinol 16, 1810-1827), with the exceptions that 48 well cell culture plates were used and Trans-IT LTI transfection reagent (Mirus Corp., Madison, Wis.). Luciferase assays were performed with a Dual Luciferase Assay kit (Promega) according to the manufacture's recornmendations. Steroid hormones and 9-cis retinoic acid were purchased from Sigma-Aldrich (St. Louis, Mo.). For transfection of MDA-MB-231 and MCF-7 cells, the cells were incubated for three days in a phenol red-free DMEM supplemented with 10% charcoal-dextran treated fetal bovine serum (CD-FBS). Cells were transfected with appropriate expression vectors using Lipofectamine 2000 transfection reagent (Invitrogen).

[3] = tested on: pS2, C3 and Oxytocin promoter constructs; assay: pS2, C3 and Oxytocin promoter luciferase reporters, MCF-7 cells; type: cell-based, human; conditions: absence or presence of 10^−9 M E2, FIG. 6A
Method: as §1, §4

How did the “effect on transcription from ERE-TATA reporter” value [1] turn out when “VP16: activation domain of the herpes simplex virion protein VP16 alone, residues 403-490” was run?
The value was “did not alter the transcription”.

Which “cells accumulated in the G1 phase” value (MCF-7 cells; medium with untreated FBS, 4-OHT 10^−7 M) does the source give for 4-hydroxytamoxifen [Construct 4-OHT] here?
Its value is “increased the cell population in the G1 phase”.

What about the “effect on CatD promoter reporter enzyme activity” value [2] of the same molecule?
Its value is “did not alter the transcription of the reporter enzyme mediated by ERα; also recorded: prevented the E2-ERα complex-mediated augmentation”.

What about the “effect on C3 promoter reporter enzyme activity” value (human C3 gene promoter) of the same molecule?
The value was “effectively decreased the transcription induction”.

`C[C@]12CC[C@@H]3c4ccc(O)cc4CC[C@H]3[C@@H]1CC[C@@H]2O` [Construct E2, estradiol 17β] was tested. Which “G1/S phase transition / cell cycle progression” value (MCF-7 cells; charcoal-dextran treated FBS, E2 10^−9 M) did it give?
Its value is “enhanced the G1/S phase transition”.

What about the “transcriptional response from the RARα promoter” value (RARα promoter) of the same molecule?
The value was “enhanced the reporter activity”.

What about the “reporter enzyme activity from pS2, C3 and Oxytocin promoter constructs” value [3] of the same molecule?
Its value is “enhanced reporter enzyme activity”.

Source: patent US20070192880A1, “Horming response element binding transregulators” (UNIVERSITY OF ROCHESTER, priority 2003, published 2007)
